One assay concerns IL-6. The experiment in a line: P. acnes-induced IL-6 release in THP-1 cells (ELISA). The following applies: for Expression of Cytokines IL-6 (pg/ml) Mean: THP-1 cells, Table 71. In kind it is cell-based. Here is the method:
(§1) Method: Preparation of Stimulant for Inflammation: P. acnes culture suspension was prepared in PBS and the cell number in the suspension was adjusted to approximately 5×10^8 CFU/ml by measuring the cell density using a Densimat. The bacterial suspension was then heat killed at 80° C. for 30 min and stored at −80° C. until further use.
(§2) Cells were seeded in a 96-well format (2×10^5 THP-1 cells per well) in media containing 10% FBS. The cells were stimulated to induce inflammatory cytokines using 3 McFarland equivalent heat-killed P. acnes. Cells in control wells were treated with PBS. One hour after induction with P. acnes, test agents were added to the induced cells at appropriate concentrations to be tested (compound 91 at 25 μg/ml). The plates were incubated at 37° C. for 24 hours. After 24 h, the plates were centrifuged to pellet the cells and the supernatants were collected. The cell culture supernatants thus obtained were analyzed for levels of cytokines (IL-1α, IL-1β, IL-6 and IL-8) by ELISA using R&D Systems kits for individual cytokines following the manufacturer's instructions.
(§3) Preparation of stimulant for inflammation: P. acnes culture suspension was prepared in PBS and the cell number in the suspension was adjusted to approximately 5×10^8 CFU/ml by measuring the cell density using a Densimat. The bacterial suspension was then heat killed at 80° C. for 30 min and stored at −80° C. until further use.
(§4) Cells were seeded in a 96-well format (2×10^5 THP-1 cells per well) in media containing 10% FBS. The cells were stimulated to induce inflammatory cytokines using 3 McFarland equivalent heat-killed P. acnes. Cells in control wells were treated with PBS. One hour after induction with P. acnes, test agents were added to the induced cells at appropriate concentrations (Besifloxacin at 10 and 30 μg/ml; Adapalene at 0.04 and 0.4 μg/ml). The plates were incubated at 37° C. for 24 hours. After 24 h, the plates were centrifuged to pellet the cells and the supernatants were collected. The cell culture supernatants thus obtained were analyzed for cytokine levels (IL-6 and IL-8) by ELISA using R&D Systems kits for individual cytokines following the manufacturer's instructions.

In the next assay the test system is IL-8. The experiment in a line: P. acnes-induced IL-8 release in THP-1 cells (ELISA). Format: cell-based. The settings on record: THP-1 cells, Table 71. Here is the method:
as §1, §2, §3, §4

Assay [1] relates to P. acnes clinical isolates. Nature of the assay: MIC of P. acnes isolated from acne patients (clinical isolates).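 On MIC: MIC in µg/mL.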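 On all read-outs here: anaerobic 96-well plate assay at 37 °C over 72 h, with Alamar blue dye as read-out.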 The following applies: for MIC: Cutibacterium acnes, clinical isolate susceptible to clindamycin and erythromycin.
Protocol: P. acnes were cultured in Brain Heart Infusion Agar (BHIA) at 37° C. for 48 hours under anaerobic condition. […] For bacterial inoculum, P. acnes culture turbidity was adjusted to 0.5 McFarland standard (approximately 1.5×10^8) and further diluted (100 times with sterile BHI broth). Diluted P. acnes suspension (100 μl) was added to each well except sterility control wells (column 12 of 96 well plate). Inoculated plates were incubated at 37° C. for 72 hours under anaerobic condition. After incubation, MIC was determined by adding Alamar blue dye.
Assay [2] relates to P. acnes MTCC 1951. In kind it is cell-based, Propionibacterium acnes. The settings on record: for MPC: P. acnes, 10^10 cells inoculum; for MPC/MIC: ratio against P. acnes. Here is the method:
3 to 4 Petri plates containing 48 h P. acnes culture was suspended in sterile Phosphate buffer saline, PBS (pH 7.2) and turbidity was adjusted to optical density of 1 at 600 nm (10^9 cells/ml). 50 ml of this culture suspension was centrifuged at 4000 rpm for 40 min. The supernatant was discarded and pellet resuspended in 250 μl of sterile PBS. 50 μl of these cell suspensions (10^10 cells) was spread over the plates containing various concentrations of antibiotics (around MIC range). Plates were incubated at 37° C. for 48 h and the lowest concentration of the drug that allowed no growth was taken as its MPC.

Assay [3] concerns P. acnes MTCC 1951. The experiment in a line: MIC by micro broth dilution (Alamar blue), clindamycin-susceptible P. acnes. The following applies: Cutibacterium acnes, MTCC1951; Table 7; against P. acnes; read-out: MIC. In kind it is cell-based, Propionibacterium acnes. Here is the method: (§5) The plates were incubated at 37° C. for 48 h under anaerobic condition for P. acnes and 37° C. for 24 h for S. aureus The plates were read under Bio-Rad plate reader at 595 nm for optical density to generate the dose-response curves. The MIC of the test compound was recorded by addition of Alamar blue dye.
(§6) P. acnes (MTCC 3297, MTCC 1951& CCARM 9010) are cultured in Brain Heart Infusion (BHI) Broth at 37° C. for 48-72 h under anaerobic condition. The test compounds/formulations are initially diluted with suitable solvent and further diluted with BHI broth to get the required concentrations. Samples (100 μl) of different concentrations (prepared by serial dilution) are added to 96-well plate. To the wells, 100 μl of P. acnes BHI broth culture is added [culture turbidity adjusted against 0.5 McFarland standard (approx 1.5×10^8), and further diluted 100-fold with sterile BHI broth]. In addition Growth Control and Sterility Control are created using 100 μl each of P. acnes BHI broth culture and plain BHI broth, respectively.
(§7) Plates are incubated at 37° C. for 48-72 hrs under anaerobic condition. The plate is read under Bio-Rad plate reader @ 595 nm for optical density to generate the dose-response curves. The MIC of the test compound is recorded by addition of Alamar blue dye.
BHI broth and BHI agar media were prepared as per the manufacturer's instruction and autoclaved at 121° C. for 15 minutes. […] For MIC determination testing, gels are dissolved in the solvent and further diluted with BHI broth. Then, 96 wells plate are filled with 100 μl of BHI broth containing drug with different concentration to get the final concentrations of 0.06, 0.13, 0.25, 0.5, 1 and 2 μg/ml in different lanes (lane 1 to lane 6). Remaining lanes of the 96 well plate are used as growth control and sterility control. Finally, P. acnes culture suspension (approx 1.5×10^6) is added in all the wells except sterility control wells and plate is incubated at 37° C. for 48-72 h under anaerobic condition. At the end of 72 h, Alamar blue solution (20 μl) is added into the wells and incubated at 37° C. for 2 h. Plate is visualized for bacterial inhibitions and MIC values of the tested samples are determined. […]

For a further assay, the system named is P. acnes CCARM 9010. Nature of the assay: MIC by micro broth dilution (Alamar blue), clindamycin-resistant/nonresponsive P. acnes. In kind it is cell-based, Propionibacterium acnes. The settings on record: clindamycin-nonresponsive CCARM 9010. Here is the method:
as §5, §6, §7

[4] abbreviates: Cells + P. acnes + Adapalene 0.04 μg/ml.
Where [5] appears, read: Cells + P. acnes + Adapalene 0.4 μg/ml.

The source of these data is patent US10071103B2, “Treatments for resistant acne” (VYOME BIOSCIENCES PVT. LTD., priority 2014, dated 2018).

≈ marks a conversion by molar mass, not a printed value. Where two headings read alike, the source gives them in different places.

Turning to `COc1ccc(-c2ccc3cc(C(=O)O)ccc3c2)cc1C12CC3CC(CC(C3)C1)C2` [Adapalene, adapalene], the “Expression of Cytokines IL-6 (pg/ml) Mean” value in the assay with IL-6 (setting [4]) came to 308.82 pg/mL; in the assay on IL-6 (setting [5]) it was 162.76 pg/mL. Moreover, in the assay with IL-6 (Example 61, besifloxacin 10, 30 μg/ml, adapalene 0.04, 0.4 μg/ml), the “Effect on P. acnes-induced IL-6 levels (in words)” value is given as “impart individual anti-inflammatory effects”. Also, the “Expression of Cytokines IL-8 (pg/ml) Mean” value amounted to 2536.76 pg/mL with IL-8 (setting [4]) and 2579.87 pg/mL with IL-8 (setting [5]).
As for `CC[C@H]1OC(=O)[C@H](C)[C@@H](O[C@H]2C[C@@](C)(OC)[C@@H](O)[C@H](C)O2)[C@H](C)[C@@H](O[C@@H]2O[C@H](C)C[C@H](N(C)C)[C@H]2O)[C@](C)(O)C[C@@H](C)C(=O)[C@H](C)[C@@H](O)[C@]1(C)O` [Erythromycin, erythromycin], the “Susceptibility of P. acnes isolated from volunteers V3 and V21 (in words)” value in assay [1] is listed as “resistance”. Moreover, the “Susceptibility of clindamycin-nonresponder clinical isolates (in words)” value in assay [1] was “wide variation in sensitivity”. Also, the “Susceptibility of clinical isolates susceptible to clindamycin and erythromycin (in words)” value in assay [1] is recorded as “susceptible”. Also, the MIC in assay [1] (P. acnes strain V2-9), in assay [1] (P. acnes strain V2-10), in assay [1] (P. acnes strain V3-9), in assay [1] (P. acnes strain V3-10), in assay [1] (P. acnes strain V4-6) and in assay [1] (P. acnes strain V4-8) was below 0.03 µg/mL each time. The MIC in assay [1] (P. acnes strain V4-13), in assay [1] (P. acnes strain V5-2), in assay [1] (P. acnes strain V5-5), in assay [1] (P. acnes strain V5-7), in assay [1] (P. acnes strain V6-5) and in assay [1] (P. acnes strain V6-6) was below 0.03 µg/mL throughout. Further, the MIC in assay [1] (P. acnes strain V6-7) is below 0.03 µg/mL; in assay [1] (P. acnes strain V7-3), below 0.03 µg/mL; in assay [1] (P. acnes strain V7-4), below 0.03 µg/mL; in assay [1] (P. acnes strain V7-14), below 0.03 µg/mL; in assay [1] (P. acnes strain V9-6E) it was below 0.09 µg/mL; in assay [1] (P. acnes strain V12-2E), below 0.09 µg/mL. Moreover, the MIC is below 0.09 µg/mL in assay [1] (P. acnes strain V13-3E); below 0.09 µg/mL in assay [1] (P. acnes strain V14-2E); 0.19 µg/mL in assay [1] (P. acnes strain V15B-1E); 0.78 µg/mL in assay [1] (P. acnes strain V17-3E); 0.19 µg/mL in assay [1] (P. acnes strain V18-4E); below 0.09 µg/mL in assay [1] (P. acnes strain V19-2E). Further, in assay [1] (P. acnes strain V20-5E), the MIC is below 0.09 µg/mL.
For `CN(C)c1ccc(O)c2c1C[C@H]1C[C@H]3[C@H](N(C)C)C(O)=C(C(N)=O)C(=O)[C@@]3(O)C(O)=C1C2=O` [Minocycline, minocycline], the MIC in assay [1] (P. acnes strain V2-9), in assay [1] (P. acnes strain V2-10), in assay [1] (P. acnes strain V3-9), in assay [1] (P. acnes strain V3-10), in assay [1] (P. acnes strain V4-6) and in assay [1] (P. acnes strain V4-8) was 0.06 µg/mL each time. For the same compound, the MIC in assay [1] (P. acnes strain V4-13), in assay [1] (P. acnes strain V5-2), in assay [1] (P. acnes strain V5-5), in assay [1] (P. acnes strain V5-7), in assay [1] (P. acnes strain V6-5) and in assay [1] (P. acnes strain V6-6) was 0.06 µg/mL each time. Also, the MIC in assay [1] (P. acnes strain V6-7), in assay [1] (P. acnes strain V7-3), in assay [1] (P. acnes strain V7-4) and in assay [1] (P. acnes strain V7-14) was 0.06 µg/mL throughout.
For `CC1CCc2c(N3CCC(O)CC3)c(F)cc3c(=O)c(C(=O)O)cn1c23` (stereo not drawn) [Nadifloxacin], in the assay with P. acnes MTCC 1951 [2], the MPC is 1.2 µg/mL and the MPC/MIC was 9.2. In addition, the MPC/MIC in the assay with P. acnes MTCC 1951 [2] (listed as nadifloxacin) is around 8. In addition, the MIC with P. acnes MTCC 1951 [3] stood at 0.13 µg/mL (≈ 0.361 µM).
`CC[C@H]1OC(=O)[C@H](C)[C@@H](O[C@H]2C[C@@](C)(OC)[C@@H](O)[C@H](C)O2)[C@H](C)[C@@H](O[C@@H]2O[C@H](C)C[C@H](N(C)C)[C@H]2O)[C@](C)(O)C[C@@H](C)/C(=N\OCOCCOC)[C@H](C)[C@@H](O)[C@]1(C)O` [Roxithromycin]: the “Activity / bacterial killing, dose response curve (in words)” value in the assay with P. acnes CCARM 9010 is recorded as “resistant”.
Turning to `CC1Sc2c(C(=O)O)c(=O)c3cc(F)c(N4CCNCC4)cc3n21` (stereo not drawn) [Ulifloxacin], in the assay with P. acnes MTCC 1951 [2], the MPC amounted to 1.2 µg/mL and the MPC/MIC came out at 9.2. In addition, in the assay with P. acnes MTCC 1951 [3], the MIC amounted to 0.13 µg/mL (≈ 0.372 µM).
